Values of other authors as cited in US7473787B2, “Bicyclic [3.1.0] derivatives as glycine transporter inhibitors” (Pfizer Inc, priority 2003, dated 2009).

System: NMDA receptor
Settings: effect blocked by a specific NMDA-site antagonist and a glycine-site antagonist

Question: Which “effect on postsynaptic current driven by the NMDA receptor” value does the source give for `CN(CCC(Oc1ccc(-c2ccccc2)cc1)c1ccc(F)cc1)CC(=O)O` (stereo not shown) [NFPS] here?
Answer: increased the postsynaptic current
